Some test systems named below: Staphylococcus aureus MR; Enterococcus faecalis; Enterococcus faecium VR; Enterococcus faecium; Enterococcus faecalis VR; Enterobacter cloacae; Staphylococcus aureus; Klebsiella pneumoniae; Streptococcus pneumoniae; Citrobacter sp.; Escherichia coli UB1005; Escherichia coli EC183; Candida albicans CA2761.
What all share (assay): ≥ marks a high value that may be exact or a test limit, other limits are often not marked, values filed in µg/mL are converted to µM
Assay [1] concerns Salmonella typhimurium KCTC 1926.
Assay [2] concerns Staphylococcus aureus KCTC 1621.
Assay [3] has as its system Pseudomonas aeruginosa KCTC 1637.
Assay [4] relates to Escherichia coli KCTC 1682.
The test system of assay [5] is Bacillus subtilis KCTC 3068.
Assay [6] deals with Staphylococcus epidermidis KCTC 1917.
In assay [7] the test system is Escherichia coli ATCC 25922.
Assay [8] relates to Pseudomonas aeruginosa ATCC 15442.
For assay [9], the system named is Staphylococcus aureus ATCC 25923.
In assay [10] the test system is Acinetobacter baumannii ATCC 15308.
Assay [11] concerns Aspergillus niger ATCC 16404.
The test system of assay [12] is Klebsiella pneumoniae ATCC 700603.
Assay [13] has as its system Escherichia coli ATCC 23506.
Assay [14] has as its system Candida glabrata ATCC 15126.
For assay [15], the system named is Pseudomonas aeruginosa ATCC 9027.
For assay [16], the system named is Staphylococcus aureus ATCC 9144.
In assay [17] the test system is Streptococcus pneumoniae ATCC 49619.
The test system of assay [18] is Candida albicans ATCC 10231.
Assay [19] concerns Enterococcus faecalis PCM 2673.
Assay [20] deals with Streptococcus gordonii ATCC 10558.
The subject of assay [21] is Streptococcus oralis ATCC 9811.
Assay [22] has as its system Streptococcus sanguinis ATCC 10556.
Assay [23] deals with Candida krusei CGMCC 2.1857.
Assay [24] relates to Candida albicans CGMCC 2.2086.
In assay [25] the test system is Bacillus subtilis CMCC 63501.
Assay [26] has as its system Staphylococcus epidermidis ATCC 12228.
Assay [27] relates to Staphylococcus aureus ATCC 29213.
In assay [28] the test system is Salmonella enterica subsp. enterica serovar Typhimurium C77-31.
Assay [29] has as its system Candida tropicalis CGMCC 2.1975.

Drawing on DBAASP, this text covers MIC for five compounds.

In brackets after ≈: the same amount, converted by molar mass.

As a reminder, the MIC is the lowest concentration found to suppress growth. Low values mean greater potency, high ones weaker potency.

Regarding `CC(C)C[C@H](NC(=O)[C@H](CC(C)C)NC(=O)[C@H](CS)NC(=O)[C@H](Cc1cnc[nH]1)NC(=O)[C@H](C)NC(=O)[C@H](C)N)C(=O)N[C@@H](CCCN=C(N)N)C(=O)NCC(=O)N[C@@H](CC(N)=O)C(=O)N[C@@H](CCCN=C(N)N)C(N)=O` [AAHCLLRGNR], the MIC (against Staphylococcus aureus MR; in assay [1]; with Enterococcus faecalis; in assay [2]; against Enterococcus faecium VR; in assay [3]) was 30 µM in each case. Moreover, the MIC in [4] worked out at 15 µM; in the assay with Enterococcus faecium, 30 µM; with Enterococcus faecalis VR it was 30 µM; in [5], 30 µM; in assay [6], 15 µM.
As for `CC[C@H](C)[C@H](NC(=O)[C@H](CC(C)C)NC(=O)CNC(=O)CNC(=O)[C@H](CC(C)C)NC(=O)[C@@H](N)Cc1ccccc1)C(=O)N[C@@H](CCCCN)C(=O)N[C@@H](Cc1c[nH]c2ccccc12)C(=O)N[C@@H](Cc1c[nH]c2ccccc12)C(=O)N1CCC[C@H]1C(=O)N[C@@H](Cc1c[nH]c2ccccc12)C(=O)N[C@@H](CCCN=C(N)N)C(=O)N[C@@H](CCCN=C(N)N)C(N)=O` [FLGGLIKWWPWRR], the MIC is at least 146 µM in the assay on Enterobacter cloacae; 4.55 µM (≈ 7.81 µg/mL) in assay [7]; 4.55 µM (≈ 7.81 µg/mL) with Staphylococcus aureus; 18.2 µM (≈ 31.2 µg/mL) in assay [8]; 4.55 µM (≈ 7.81 µg/mL) in assay [9]; over 146 µM with Klebsiella pneumoniae. Besides, the minimum inhibitory concentration (MIC) against Streptococcus pneumoniae is 4.55 µM (≈ 7.81 µg/mL); in [10], 18.2 µM (≈ 31.2 µg/mL); against Citrobacter sp., at least 146 µM.
`CC[C@H](C)[C@H](NC(=O)CNC(=O)[C@H](CCCCN)NC(=O)[C@H](Cc1ccccc1)NC(=O)[C@H](CC(C)C)NC(=O)[C@H](CCCCN)NC(=O)[C@H](CCCCN)NC(=O)[C@H](C)NC(=O)[C@H](CCCCN)NC(=O)[C@H](CCCCN)NC(=O)[C@H](Cc1ccccc1)NC(=O)CNC(=O)[C@H](CCCCN)NC(=O)[C@H](C)NC(=O)[C@H](Cc1ccccc1)NC(=O)[C@@H](NC(=O)[C@H](CCCCN)NC(=O)[C@@H](NC(=O)[C@H](CC(C)C)NC(=O)[C@H](CCCCN)NC(=O)[C@@H](N)CCCCN)[C@@H](C)CC)C(C)C)C(=O)NCC(N)=O` [KKLIKVFAKGFKKAKKLFKGIG]: the MIC was 12.9 µM (≈ 32 µg/mL) in assay [11]; 3.23 µM (≈ 8 µg/mL) in assay [7]; 0.101 µM (≈ 0.25 µg/mL) in [12]; 0.807 µM (≈ 2 µg/mL) in assay [13]; 51.7 µM (≈ 128 µg/mL) in [9]; at least 51.7 µM in assay [14]. In addition, the MIC amounted to 0.807 µM (≈ 2 µg/mL) in assay [15]; 25.8 µM (≈ 64 µg/mL) in assay [16]; 1.61 µM (≈ 4 µg/mL) in assay [17]; 103 µM (≈ 256 µg/mL) in assay [18]; 25.8 µM (≈ 64 µg/mL) in assay [19].
For `CC[C@H](C)[C@H](NC(=O)CNC(=O)CNC(=O)CNC(=O)CNC(=O)[C@H](Cc1c[nH]c2ccccc12)NC(=O)[C@@H](NC(=O)[C@H](Cc1cnc[nH]1)NC(=O)[C@H](CCSC)NC(=O)CNC(=O)[C@@H]1CCCN1C(=O)[C@H](C)NC(=O)[C@H](CC(=O)O)NC(=O)[C@@H]1CCCN1C(=O)[C@H](CC(C)C)NC(=O)[C@H](CCCCN)NC(=O)[C@@H](N)CCCN=C(N)N)[C@@H](C)O)C(=O)N[C@@H](CC(N)=O)C(=O)N[C@H](C(=O)N[C@@H](CC(C)C)C(=O)N[C@@H](CCC(N)=O)C(=O)N[C@@H](CCCCN)C(=O)N[C@@H](Cc1ccc(O)cc1)C(=O)N[C@@H](Cc1ccc(O)cc1)C(=O)N[C@@H](CS)C(=O)N[C@@H](CCCN=C(N)N)C(=O)N[C@H](C(=O)N[C@@H](CCCN=C(N)N)C(=O)NCC(=O)O)C(C)C)[C@@H](C)O` [RKLPDAPGMHTWGGGGINTLQKYYCRVRG], the MIC was at least 186 µM in [20], at least 155 µM in assay [21] and at least 186 µM in [22].
With `CC[C@H](C)[C@H](NC(=O)[C@H](Cc1c[nH]c2ccccc12)NC(=O)[C@H](CCCCN)NC(=O)[C@H](CC(C)C)NC(=O)[C@@H](NC(=O)[C@H](CCCCN)NC(=O)CNC(=O)[C@@H](NC(=O)[C@H](CCCCN)NC(=O)[C@H](CCCCN)NC(=O)[C@H](CC(C)C)NC(=O)[C@H](CCCN=C(N)N)NC(=O)[C@H](CCCCN)NC(=O)[C@H](CCCN=C(N)N)NC(=O)[C@@H](N)[C@@H](C)O)[C@@H](C)CC)C(C)C)C(N)=O` [TRKRLKKIGKVLKWI], the MIC in [23] was 8 µM (≈ 14.9 µg/mL); in assay [7] it was 8 µM (≈ 14.9 µg/mL); in assay [24] it was at least 64 µM; against Escherichia coli UB1005 it was 4 µM (≈ 7.47 µg/mL); in assay [9] it was 32 µM (≈ 59.7 µg/mL); in [25] it was 2 µM (≈ 3.73 µg/mL). Also, the MIC is 32 µM (≈ 59.7 µg/mL) in [26]; 32 µM (≈ 59.7 µg/mL) in assay [27]; 2 µM (≈ 3.73 µg/mL) in the assay with Escherichia coli EC183; 8 µM (≈ 14.9 µg/mL) in assay [28]; 2 µM (≈ 3.73 µg/mL) in assay [29]; at least 128 µM in the assay with Candida albicans CA2761.
